Test results taken from ChEMBL document CHEMBL4680269, “N-benzylpiperidinol derivatives as novel USP7 inhibitors: Structure-activity relationships and X-ray crystallographic studies” (Eur J Med Chem, 2020).
The source made the active and inactive calls. The calls are words filed in the database; no cut-off is given here.

What was measured:
[1] = target: T1, Ubiquitin carboxyl-terminal hydrolase 7 (Homo sapiens, UniProt Q93009); test: Inhibition of recombinant human N-terminal His6-tagged full length USP7 expressed in baculovirus infected Sf21 cells using monoubiquitinated ubiquitin-rhodamine as substrate incubated for 30 mins followed by Ub-Rho addition and measured after 2 hrs by spectrophotometry
Target sequence in this assay (Q93009 whole entry): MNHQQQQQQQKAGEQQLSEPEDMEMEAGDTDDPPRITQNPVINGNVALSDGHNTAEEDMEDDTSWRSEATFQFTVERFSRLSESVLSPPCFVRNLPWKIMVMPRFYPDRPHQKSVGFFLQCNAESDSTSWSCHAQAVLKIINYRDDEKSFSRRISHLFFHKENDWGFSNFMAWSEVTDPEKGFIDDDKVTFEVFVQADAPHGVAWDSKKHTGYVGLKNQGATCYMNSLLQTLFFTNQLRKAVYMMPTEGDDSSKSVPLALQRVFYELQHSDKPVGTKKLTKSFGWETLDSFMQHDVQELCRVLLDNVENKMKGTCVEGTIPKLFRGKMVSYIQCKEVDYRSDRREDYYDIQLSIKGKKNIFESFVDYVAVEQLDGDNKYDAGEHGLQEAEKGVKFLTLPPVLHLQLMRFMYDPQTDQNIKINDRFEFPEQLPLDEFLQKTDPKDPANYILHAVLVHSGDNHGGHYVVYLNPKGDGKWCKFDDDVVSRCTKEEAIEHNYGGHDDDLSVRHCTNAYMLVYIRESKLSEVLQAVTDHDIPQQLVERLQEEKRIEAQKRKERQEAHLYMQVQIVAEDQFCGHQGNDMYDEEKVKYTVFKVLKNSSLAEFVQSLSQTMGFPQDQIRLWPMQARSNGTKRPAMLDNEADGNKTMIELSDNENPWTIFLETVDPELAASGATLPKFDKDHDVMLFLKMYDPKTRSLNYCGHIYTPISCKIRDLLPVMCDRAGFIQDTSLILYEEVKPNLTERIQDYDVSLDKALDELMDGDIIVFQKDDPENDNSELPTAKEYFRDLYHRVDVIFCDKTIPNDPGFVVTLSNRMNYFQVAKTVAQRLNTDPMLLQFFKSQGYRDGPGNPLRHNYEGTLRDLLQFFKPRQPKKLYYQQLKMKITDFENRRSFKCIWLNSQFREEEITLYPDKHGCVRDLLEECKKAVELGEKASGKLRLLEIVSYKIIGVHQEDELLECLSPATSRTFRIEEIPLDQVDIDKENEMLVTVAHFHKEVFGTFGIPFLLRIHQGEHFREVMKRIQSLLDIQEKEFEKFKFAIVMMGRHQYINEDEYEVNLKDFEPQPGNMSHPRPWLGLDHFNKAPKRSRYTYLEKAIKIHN

[2] = target: T1, Ubiquitin carboxyl-terminal hydrolase 7; test: Inhibition of recombinant human N-terminal His6-tagged full length USP7 expressed in baculovirus infected Sf21 cells at 10 uM using monoubiquitinated ubiquitin-rhodamine as substrate incubated for 30 mins followed by Ub-Rho addition and measured after 2 hrs by spectrophotometry relative to control; conditions: time 2.5 hrs
Target sequence in this assay (Q93009 whole entry, looked up): as the sequence (Q93009 whole entry) above

IC50 [1] [µM] | inhibition [2] | SMILES
1.6 |  | O=c1c2cnn(-c3ccc(F)cc3)c2ncn1CC1(O)CCN(Cc2ccc(F)cc2Cl)CC1
0.8 |  | COC(=O)c1ccc(CN2CCC(O)(Cn3cnc4c(cnn4-c4ccc(F)cc4)c3=O)CC2)c(Cl)c1
 | 32% | O=c1c2cnn(-c3ccc(F)cc3)c2ncn1CC1(O)CCN(c2ncccc2I)CC1
0.8 |  | COC(=O)c1ccc(CN2CCC(O)(Cn3cnc4c(cnn4-c4ccc(F)cc4)c3=O)CC2)c(F)c1
3.1 |  | O=c1c2cnn(-c3ccc(F)cc3)c2ncn1CC1(O)CCN(Cc2ccccc2Br)CC1
 | inactive | O=c1c2cnn(-c3ccc(F)cc3)c2ncn1CC1(O)CCN(c2cccc(C(F)(F)F)n2)CC1
0.121 |  | COC(=O)c1ccc(CN2CCC(O)(Cn3cnc4c(-c5ccc(CNC(C)=O)cc5)n(C)nc4c3=O)CC2)c(Cl)c1
 | inactive | O=c1c2cnn(-c3ccc(F)cc3)c2ncn1CC1(O)CCN(c2ccc3ccccc3n2)CC1
 | 32% | O=c1c2cnn(-c3ccc(F)cc3)c2ncn1CC1(O)CCN(c2ncccc2Br)CC1
0.9 |  | COC(=O)c1ccc(CN2CCC(O)(Cn3cnc4c(cnn4-c4ccc(F)cc4)c3=O)CC2)c(Br)c1
 | inactive | O=Cc1cccnc1N1CCC(O)(Cn2cnc3c(cnn3-c3ccc(F)cc3)c2=O)CC1
4.5 |  | COC(=O)c1ccc(CN2CCC(O)(Cn3cnc4c(cnn4-c4ccc(F)cc4)c3=O)CC2)cc1
6.7 |  | O=c1c2cnn(-c3ccc(F)cc3)c2ncn1CC1(O)CCN(Cc2ccc(Br)cc2)CC1
 | inactive | O=c1c2cnn(-c3ccc(F)cc3)c2ncn1CC1(O)CCN(c2ncccn2)CC1
0.157 |  | COC(=O)c1ccc(CN2CCC(O)(Cn3cnc4c(Br)n(C)nc4c3=O)CC2)c(Cl)c1
 | inactive | N#Cc1cccnc1N1CCC(O)(Cn2cnc3c(cnn3-c3ccc(F)cc3)c2=O)CC1

IC50 [1] [µM] | inhibition [2] | SMILES
9.8 |  | O=c1c2cnn(-c3ccc(F)cc3)c2ncn1CC1(O)CCN(Cc2ccccc2F)CC1
3.4 |  | O=c1c2cnn(-c3ccc(F)cc3)c2ncn1CC1(O)CCN(Cc2ccccc2Cl)CC1
 | inactive | CCOC(=O)c1csc(N2CCC(O)(Cn3cnc4c(cnn4-c4ccc(F)cc4)c3=O)CC2)n1
8 |  | O=c1c2cnn(-c3ccc(F)cc3)c2ncn1CC1(O)CCN(Cc2ccc(Cl)cc2)CC1
11.4 |  | N#Cc1cc(Cl)ccc1CN1CCC(O)(Cn2cnc3c(cnn3-c3ccc(F)cc3)c2=O)CC1
8.1 |  | N#Cc1ccccc1CN1CCC(O)(Cn2cnc3c(cnn3-c3ccc(F)cc3)c2=O)CC1
 | 32% | O=c1c2cnn(-c3ccc(F)cc3)c2ncn1CC1(O)CCN(c2ncccc2Cl)CC1
0.209 |  | COC(=O)c1ccc(CN2CCC(O)(Cn3cnc4c(-c5ccc(CNC(=O)OC(C)(C)C)cc5)n(C)nc4c3=O)CC2)c(Cl)c1
9 |  | O=c1c2cnn(-c3ccc(F)cc3)c2ncn1CC1(O)CCN(Cc2ccc([N+](=O)[O-])cc2)CC1
3.3 |  | O=c1c2cnn(-c3ccc(F)cc3)c2ncn1CC1(O)CCN(Cc2ccc(Cl)cc2Cl)CC1
 | inactive | O=Cc1cccc(N2CCC(O)(Cn3cnc4c(cnn4-c4ccc(F)cc4)c3=O)CC2)n1
1.9 |  | O=c1c2cnn(-c3ccc(F)cc3)c2ncn1CC1(O)CCN(Cc2ccc(Br)cc2Cl)CC1
 | inactive | O=c1c2cnn(-c3ccc(F)cc3)c2ncn1CC1(O)CCN(c2ccccn2)CC1
 | inactive | O=c1c2cnn(-c3ccc(F)cc3)c2ncn1CC1(O)CCN(c2ncccc2F)CC1
 | inactive | O=c1c2cnn(-c3ccc(F)cc3)c2ncn1CC1(O)CCN(c2nccs2)CC1
